The record followed here is a melting point compilation (Tetko et al.; mined from patent text by program, amines drawn as free bases though some values may be those of a salt).

In turn, `NC(=O)C1(c2ccccc2)CCN(CCC2(c3ccc(Cl)c(Cl)c3)CCN(C(=O)c3ccccc3)C2)CC1` (configuration not stated) returned a melting point of 87 to 90 °C.

`CCc1nn(Cc2cc(O)n[nH]2)c(CC)c1Oc1cc(Cl)cc(Cl)c1` came in with a melting point of 142 to 144 °C. Regarding `CC(Cc1ccc(C(C)(C)C)cc1)C[N+]1([O-])CC(C)OC(C)C1` (configuration not stated), the melting point is 115 to 118 °C. In turn, `Cc1ccc(Cn2c(=O)c3c(Cl)cc(Cl)cc3n(Cc3ccccc3)c2=O)cc1` returned a melting point of 166 to 169 °C. With `COC(=O)C(/C(=C\c1ccccc1)C(N)=O)=C(\C)c1cc(OC)c(OC)c(OC)c1` the figure was 118 to 120 °C; with `Cc1cc(-n2c(C)nc3ccccc32)cc2c1NC(=O)CC2C` (configuration not stated), 248 to 252 °C; with `Fc1cccc(F)c1C1=NC(c2ccc(-c3ccc(SC(F)F)cc3)cc2)CO1` (configuration not stated), 75 to 77 °C. The compound `Cc1nnc(-c2ccc3occ(-c4ccc(S(C)=O)c(Cl)c4)c3c2)o1` (configuration not stated) came in with a melting point of 196 to 197 °C. Regarding `CCCc1nn(C)c2c(-c3ccc(S(C)(=O)=O)cc3)nc(-c3ccc(F)cc3)nc12`, the melting point fell in the range of 208 to 210 °C. In turn, `CN1CCC(OC(c2ccccc2)c2nc3ccccc3[nH]2)C1` (configuration not stated) had a melting point of 53 °C. In the case of `CC1(C)SCC(CO)S1` (configuration not stated), the melting point lay within 45 to 50 °C. Turning to `Cc1c(O)c(=O)ccn1C(C)C`, the melting point lay within 239 to 242 °C.

The compound `O=C(O)CN(CC(CO)N(CCCO)CC(=O)O)CC(CO)N(CCCO)CC(=O)O` (configuration not stated) displayed a melting point of 173 to 177 °C. With `CP(=O)(O)C(O)C(CN)c1ccc(Cl)cc1` (configuration not stated), the melting point was in the range of 240 to 241 °C. For `COC(=NS(=O)(=O)c1nc(-c2ccccc2Cl)ns1)C(C)C` the value was 75 to 76 °C; for `O=C(CC(=O)C(F)(F)Cl)c1ccc(Cl)cc1`, 50 to 51 °C; for `[N-]=[N+]=Nc1nc(C(F)(F)F)nc(-c2ccccc2)c1-c1ccccc1`, 126 to 128 °C. For `O=S1(=O)NC(Cc2ccccc2)Nc2ccc(S(=O)(=O)N3CCCCC3)cc21` (configuration not stated) the value was 242 to 244 °C. In the case of `NC(=O)CN(CCCCCCNc1nsc2nccn12)S(=O)(=O)c1cccc2ccccc12`, the melting point was 141 to 144 °C. `CS(=O)(=O)CCNc1cc(C(c2cc(F)ccc2F)S(=O)(=O)c2ccc(Cl)cc2)c(Cl)cn1` (configuration not stated) displayed a melting point of 134 to 136 °C. For `CCc1ccc2c(O)ccnc2c1` the value was 148 to 152 °C; for `COc1cccc(C=CC(=O)c2c(OCC=C(C)C)ccc3c(=O)c4ccccc4oc23)c1`, 134 to 136 °C. In turn, `CCOc1ccccc1NC=C1C(=O)N(c2ccc(S(=O)(=O)N(CC)CC)cc2)N=C1C` returned a melting point of 170 °C.

For `O=C(NN1CCCCC1)C1=NN(c2ccc(Cl)cc2Cl)C(c2ccc(Cl)cc2)C1` (configuration not stated), the melting point fell in the range of 75 to 78 °C. As to `CCCc1cc(Br)c2oc(Cc3ccc(OC)cc3)c(C)c2c1O`, the melting point fell in the range of 110 to 112 °C. For `C=C1CCC2=C(C1)CC(C)C1C2CCC2(C)C(O)CCC12` (configuration not stated) the value was 112 °C. On to `CCOc1c(C=C2CCn3c2nc2cc(NC(=O)C(=O)O)ccc2c3=O)cccc1OC`, for which the melting point fell in the range of 220 to 222 °C. In the case of `Cn1c(=O)c2[nH]c(C=Cc3cccc([N+](=O)[O-])c3)nc2n(C)c1=O`, the melting point was more than 300 °C. Turning to `CN(C)c1nc(N(C)C)c2nnn(Cc3ccccc3F)c2n1`, the melting point lay within 123 to 125 °C.

Compound `c1ccc(CSc2nc3cnccn3n2)cc1` had a melting point of 93 to 94 °C.

Regarding `CCOC1=NS(=O)(=O)N(C)C(Cl)=N1`, the melting point was in the range of 75 to 80 °C.

Compound `COC(c1ccc(Cl)c2nc3n(c12)CCCN3c1ccc(Cl)cc1C(F)(F)F)C1CC1` (configuration not stated) returned a melting point of 208 to 209 °C.

`CCOCc1ccc(C=C(C)c2ccc3c(c2)C(C)(C)CCO3)cc1` displayed a melting point of 59 to 60 °C. With `FC(F)(F)c1ccc(-c2ccnc(Oc3ccc4cccnc4c3)c2)cc1`, the melting point lay in the range of 156 to 158 °C.

`Cc1nsc(NC(=O)Cc2ccc3nn(CC(C)C)cc3c2)c1Cl`: the melting point is 133 to 135 °C. In turn, `NS(=O)(=O)c1cc(C(=O)O)cc([N+](=O)[O-])c1Nc1ccccc1` displayed a melting point of 261 to 262 °C. `Nc1nc2c(nc(Br)n2Cc2cccnc2)c(=O)[nH]1` returned a melting point of more than 300 °C. As to `O=C(Nc1cccc(S(=O)(=O)NCc2ccncc2)c1)c1cnn2c(C(F)F)cc(-c3ccc(C(F)(F)F)cc3)nc12`, the melting point came to 221 °C. For `CCc1cc([N+](=O)[O-])c(NC(CC)CC)c([N+](=O)[O-])c1C` the value was 51 to 53 °C; for `COc1ccc(C2=NN(c3ccc(C(=O)O)cc3)C(=O)[C@H]3CC=CC[C@@H]23)cc1OC` (relative stereo), 198 to 199 °C. `CCOCc1cc2cc(Cl)ccc2oc1=Nc1ccc(Br)cc1` displayed a melting point of 119 to 121 °C. In turn, `COC(=O)CCn1nc2ccccn2c1=O` displayed a melting point of 95 to 99 °C. For `CCOC(=O)c1noc(-c2ccc(SC)cc2Cl)c1C(=O)C1CC1`, the melting point was 50 °C. With `CC(C)Oc1ccc(-c2nc(=O)c3ccccc3s2)cn1` the figure was 110 °C; with `CN(Cc1ccc([N+](=O)[O-])cc1)C1CCN(c2ccc([N+](=O)[O-])cc2)CC1`, 119 to 120 °C; with `COc1ccc([C@@H]2Sc3cc(Oc4ccc(F)cc4)ccc3N(CCN(C)C)C(=O)[C@@H]2OC(C)=O)cc1F`, 128 to 132 °C.

Compound `COc1ccc(C)cc1NC(=O)Nc1ccc(N2CCN(C(=O)Nc3ccc(OCC(O)CO)cc3C)CC2)cc1` (configuration not stated) showed a melting point of 148 to 150 °C. For `CCCCCCCCCCCCCCCCCCCCC(=S)NCCN1CCOCC1` the value was 61 °C; for `C#Cc1cccc(-n2ncc3c(NCc4ccc5c(c4)OCCO5)ncnc32)c1`, 161 °C; for `NC(=O)N1CCN(c2nn(-c3ccc(F)cc3)c3ccccc23)CC1`, 148 to 150 °C. `Nc1nc(NCCc2ccc(C=CC3CCCCC3)cc2)nc2c1ncn2C1OC(CO)C(O)C1O` (configuration not stated) displayed a melting point of 161 to 164 °C. `COc1ccc(C(=O)n2c(C(=O)O)cc3cc(OC)ccc32)cc1` returned a melting point of 185 to 187 °C. For `CCCCCCCCCCCCCCCCn1c(-c2ccc(Cl)c(N)c2)nnc1-c1ccc(Cl)c(N)c1` the value was 88 to 90 °C; for `COc1ccc(C(=O)N2CC[C@H](O)C2=O)cc1OCc1ccccc1`, 166 to 167 °C. `O=C(O)CCn1ccc2cc(OCc3ccc4ccccc4n3)ccc21` returned a melting point of 157 to 160 °C.

`CCN1CCN(c2c(F)c(N)c3c(=O)c(C(=O)O)cn(C4CC4)c3c2F)CCC1=O` came in with a melting point of 276 to 278 °C. For `CC1(c2ccc(OCc3ccccc3[Si](C)(C)C)cc2)OC(=O)N(Nc2ccccc2)C1=O` (configuration not stated) the value was 112 to 114 °C; for `COC(=O)Cn1c(C(=O)O)cc2ccccc21`, 190 °C; for `COc1ccc(NC(=O)NCCCl)cc1OC`, 117 °C. Consider `CCCCN(CCC12CC3CC(CC(C3)C1)C2)C(=O)NCCCc1ccncc1`, for which the melting point fell in the range of 110 to 118 °C. The compound `CC(C)N(CCN1C(=O)C(=O)c2ccc(Cl)cc21)C(C)C` gave a melting point of 78 to 79 °C. In turn, `CNC(=O)C1CCc2ccccc21` (configuration not stated) came in with a melting point of 107 to 109 °C.

`O[C@@H](CNCCOc1ccc2sc(-c3ncon3)cc2c1)COc1ccccc1`: the melting point fell in the range of 101 to 102 °C. The compound `O=C1Cc2ccc([N+](=O)[O-])cc21` showed a melting point of 126 to 127 °C. On to `O=C(C=Cc1ccco1)CCCCCl`, for which the melting point was in the range of 50 to 52 °C. `CCOC(=O)c1cccn2cc(C(OCC)OCC)nc12`: the melting point is 98 to 100 °C. Consider `CCOC=CC(=O)Nc1cccc(C(=O)O)c1`, for which the melting point lay in the range of 200 to 202 °C. With `CC(C)CC(NC(=O)OCc1ccccc1)C(=O)Nc1nncs1` (racemic), the melting point is 118 to 120 °C.

Compound `COc1ccc(-c2cc(C)nn2-c2ccc([N+](=O)[O-])cc2)cc1` returned a melting point of 155 to 158 °C.

Compound `CC(C)(C)[S@](=O)N1CCC[C@@H]1c1ccc(Cl)cc1` displayed a melting point of 80 °C. `CC(CCC(=O)NC(C)(C)CO)C1CCC2C3C(=O)CC4CC(O)CCC4(C)C3CCC12C` (configuration not stated): the melting point lay in the range of 220 to 222 °C.

Take `CON1C=C2N=NC3=C(N2C1)N(c1cccc(Cl)c1)CC(C1CC1)=C3`: the melting point is 155 °C. For `COCCc1sc2ncnc(N)c2c1-c1ccc(N)cc1`, the melting point fell in the range of 144 to 146 °C. Regarding `OCCN=C1c2ccccc2CCc2ccccc21`, the melting point was 93 to 94 °C.

As to `O=C1COc2cc(F)c(N3C(=O)C4=C(CCCC4)C3=O)cc2N1Cc1ccon1`, the melting point was in the range of 206 to 210 °C. Compound `CCN(CC)CC1CN(Cc2cc(OC)c(OC)c(OC)c2)CCN1C(=O)C1=Cc2cc(OC)c(OC)cc2CCC1` (configuration not stated) yielded a melting point of 157 to 160 °C. `CC(C)(C)c1cc(-n2nc3ccc(S(=O)(=O)c4ccccc4)cc3n2)c(O)c(C(C)(C)C)c1` showed a melting point of 170 to 172 °C. On to `CCOC(=O)c1c(N(C(=O)OC(C)(C)C)C(=O)OC(C)(C)C)sc(C)c1C`, for which the melting point is 70 to 78 °C. Turning to `CN(C(=O)c1ccc(N)cc1)[C@@H]1CN(C2CCCCC2)C[C@H]1O` (relative stereo), the melting point fell in the range of 180 to 182 °C. Take `COc1ccc(C(=O)CC(=O)OC(C)(C)C)c(O)c1`: the melting point was in the range of 40 to 42 °C.

For the compound `CCSc1cn(C)cc(-c2cc(C(F)(F)F)ccc2Cl)c1=O`, the melting point lay in the range of 127 to 129 °C. Consider `COc1cc(CC(=O)N[C@@H](COC(=O)C(C)(C)C)Cc2ccccc2)ccc1OCCN`, for which the melting point was in the range of 70 to 74 °C. For the compound `Cc1cc(Br)ccc1S(N)(=O)=O`, the melting point was in the range of 179 to 180 °C. For `O=C(O)c1cn(-c2ccc(F)cc2F)c2c(F)c(N3Cc4ccc(Cl)cc4C3)c(F)cc2c1=O` the value was 242 to 247 °C; for `CS(=O)(=O)C(=[N+]=[N-])C(=O)CCc1ccccc1`, 52.5 to 54 °C; for `O=C(Nc1ccc(Cl)c(Cl)c1)NS(=O)(=O)c1ccc2c(c1)C(=O)CO2`, 209 to 211 °C. With `CCOC(=O)Nc1nc(C)c(-c2nc3ccccc3c(=O)n2-c2ccc(Cl)cc2)s1` the figure was more than 275 °C.
